In patent publication US10792289B2 (Horizon Orphan LLC, priority 2009, dated 2020):
Like-named read-outs stand apart in the source and are kept apart here.

Tested on: P. aeruginosa isolates
Assay: Phase 2 study: MIC of P. aeruginosa isolates to levofloxacin
Format: cell-based
Conditions: Pseudomonas aeruginosa
Protocol: Efficacy was evaluated by microbiologic assessment of sputum samples, time to need for anti-pseudomonal antimicrobials, the Cystic Fibrosis Questionaire-Revised (CFQ-R), and pulmonary function tests. […] Pair-wise comparisons between all the treatment arms were conducted as secondary analyses.

`C[C@H]1COc2c(N3CCN(C)CC3)c(F)cc3c(=O)c(C(=O)O)cn1c23` [Levofloxacin, levofloxacin] showed an MIC50 (336 h, MITT, combined 240 mg QD and BID, Day 14, read-out: MIC50 (all organisms)) of 4 µg/mL, an MIC90 (336 h, MITT, combined 240 mg QD and BID, Day 14, read-out: MIC90 (all organisms)) of 16 µg/mL and an MIC50 (336 h, Table 14, EE, 120 mg QD, Day 14, read-out: MIC50 (all organisms)) of 8 µg/mL. For the same compound, the MIC90 (336 h, Table 14, EE, 120 mg QD, Day 14, read-out: MIC90 (all organisms)) was 32 µg/mL, the MIC50 (336 h, Table 14, EE, 240 mg BID, Day 14, read-out: MIC50 (all organisms)) was 4 µg/mL and the MIC90 (336 h, Table 14, EE, 240 mg BID, Day 14, read-out: MIC90 (all organisms)) was 32 µg/mL. For the same compound, the MIC50 (336 h, Table 14, EE, 240 mg QD, Day 14, read-out: MIC50 (all organisms)) was 8 µg/mL, the MIC90 (336 h, Table 14, EE, 240 mg QD, Day 14, read-out: MIC90 (all organisms)) was 16 µg/mL and the MIC (336 h, read-out: Highest MIC to levofloxacin, mean (SD), MITT, 120 mg QD, Day 14) was 20.3 µg/mL. For the same compound, the MIC (336 h, read-out: Highest MIC to levofloxacin, mean (SD), MITT, 240 mg BID, Day 14) was 14.9 µg/mL, the MIC (336 h, read-out: Highest MIC to levofloxacin, mean (SD), MITT, 240 mg QD, Day 14) was 9.28 µg/mL and the MIC (336 h, read-out: Highest MIC to levofloxacin, mean (SD), MITT, combined 240 mg QD and BID, Day 14) was 12.1 µg/mL. It also gave an MIC (336 h, read-out: MIC to levofloxacin (all organisms), mean (SD), EE, 120 mg QD, Day 14) of 13 µg/mL, an MIC (336 h, read-out: MIC to levofloxacin (all organisms), mean (SD), EE, 240 mg BID, Day 14) of 8.4 µg/mL and an MIC (336 h, read-out: MIC to levofloxacin (all organisms), mean (SD), EE, 240 mg QD, Day 14) of 6.6 µg/mL. For the same compound, the MIC (336 h, read-out: MIC to levofloxacin (all organisms), mean (SD), EE, combined 240 mg QD and BID, Day 14) was 7.5 µg/mL, the MIC (336 h, read-out: MIC to levofloxacin (all organisms), mean (SD), MITT, 120 mg QD, Day 14) was 12.9 µg/mL and the MIC (336 h, read-out: MIC to levofloxacin (all organisms), mean (SD), MITT, 240 mg BID, Day 14) was 8.2 µg/mL. For the same compound, the MIC (336 h, read-out: MIC to levofloxacin (all organisms), mean (SD), MITT, 240 mg QD, Day 14) was 6.5 µg/mL, the MIC (336 h, read-out: MIC to levofloxacin (all organisms), mean (SD), MITT, combined 240 mg QD and BID, Day 14) was 7.3 µg/mL and the MIC (336 h, read-out: MIC to levofloxacin (all organisms), mean (SD), Table 14, EE, 120 mg QD, Day 14) was 21.2 µg/mL. For the same compound, the MIC (336 h, read-out: MIC to levofloxacin (all organisms), mean (SD), Table 14, EE, 240 mg BID, Day 14) was 15.2 µg/mL, the MIC (336 h, read-out: MIC to levofloxacin (all organisms), mean (SD), Table 14, EE, 240 mg QD, Day 14) was 9.56 µg/mL and the MIC (336 h, read-out: MIC to levofloxacin (all organisms), mean (SD), Table 14, EE, combined 240 mg QD and BID, Day 14) was 12.3 µg/mL. The MIC50 (672 h, EE and MITT, 120 mg QD, Day 28, read-out: MIC50 for P. aeruginosa isolates) was 8 µg/mL, the MIC90 (672 h, EE and MITT, 120 mg QD, Day 28, read-out: MIC90 for P. aeruginosa isolates) was 32 µg/mL and the MIC50 (672 h, EE and MITT, 240 mg BID, Day 28, read-out: MIC50 for P. aeruginosa isolates) was 8 µg/mL. The MIC90 (672 h, EE and MITT, 240 mg BID, Day 28, read-out: MIC90 for P. aeruginosa isolates) was 32 µg/mL, the MIC50 (672 h, EE and MITT, 240 mg QD, Day 28, read-out: MIC50 for P. aeruginosa isolates) was 8 µg/mL and the MIC90 (672 h, EE and MITT, 240 mg QD, Day 28, read-out: MIC90 for P. aeruginosa isolates) was 16 µg/mL. The MIC50 (672 h, EE, 120 mg QD, Day 28, read-out: MIC50 (all organisms)) was 4 µg/mL, the MIC90 (672 h, EE, 120 mg QD, Day 28, read-out: MIC90 (all organisms)) was 16 µg/mL and the MIC50 (672 h, EE, 240 mg BID, Day 28, read-out: MIC50 (all organisms)) was 4 µg/mL. It also gave an MIC90 (672 h, EE, 240 mg BID, Day 28, read-out: MIC90 (all organisms)) of 32 µg/mL, an MIC50 (672 h, EE, 240 mg QD, Day 28, read-out: MIC50 (all organisms)) of 4 µg/mL and an MIC90 (672 h, EE, 240 mg QD, Day 28, read-out: MIC90 (all organisms)) of 16 µg/mL. For the same compound, the MIC50 (672 h, EE, combined 240 mg QD and BID, Day 28, read-out: MIC50 (all organisms)) was 4 µg/mL, the MIC90 (672 h, EE, combined 240 mg QD and BID, Day 28, read-out: MIC90 (all organisms)) was 16 µg/mL and the MIC50 (672 h, MITT, 120 mg QD, Day 28, read-out: Highest MIC, MIC50) was 8 µg/mL. The MIC90 (672 h, MITT, 120 mg QD, Day 28, read-out: Highest MIC, MIC90) was 32 µg/mL, the MIC50 (672 h, MITT, 120 mg QD, Day 28, read-out: MIC50 (all organisms)) was 4 µg/mL and the MIC90 (672 h, MITT, 120 mg QD, Day 28, read-out: MIC90 (all organisms)) was 16 µg/mL. The MIC50 (672 h, MITT, 240 mg BID, Day 28, read-out: Highest MIC, MIC50) was 8 µg/mL, the MIC90 (672 h, MITT, 240 mg BID, Day 28, read-out: Highest MIC, MIC90) was 16 µg/mL and the MIC50 (672 h, MITT, 240 mg BID, Day 28, read-out: MIC50 (all organisms)) was 4 µg/mL. It also gave an MIC90 (672 h, MITT, 240 mg BID, Day 28, read-out: MIC90 (all organisms)) of 32 µg/mL, an MIC50 (672 h, MITT, 240 mg QD, Day 28, read-out: Highest MIC, MIC50) of 8 µg/mL and an MIC90 (672 h, MITT, 240 mg QD, Day 28, read-out: Highest MIC, MIC90) of 16 µg/mL. It also gave an MIC50 (672 h, MITT, 240 mg QD, Day 28, read-out: MIC50 (all organisms)) of 4 µg/mL, an MIC90 (672 h, MITT, 240 mg QD, Day 28, read-out: MIC90 (all organisms)) of 16 µg/mL and an MIC50 (672 h, MITT, combined 240 mg QD and BID, Day 28, read-out: Highest MIC, MIC50) of 8 µg/mL.
